Assay results taken from patent US10287268B2, “Imidazolyl kinase inhibitors and uses thereof” (Dana-Farber Cancer Institute, Inc., priority 2014, dated 2019).

Columns and labels:
Format in all cases: biochemical
EPH-A2 = EPH-A2 (Homo sapiens (Human), UniProt P29317); experiment: Radiometric [γ-32P]ATP protein kinase assay (Hastie et al.), % activity vs DMSO control; settings: read-out: Activity of the protein kinase when treated with compound I-1 (% control)
Experimental: (§1) In another set of experiments, the activities of the compounds described herein against various protein kinases were determined according to the methods reported in Hastie et al., Nature Protocols, 2006, 1, 968-971.
(§2) This buffer consisted of 50 mM Tris-HCl, pH 7.5, 0.1 mM EGTA, 1 mg ml^−1 bovine serum albumin and 0.1% (vol/vol) 2-mercaptoethanol.
(§3) An assay buffer of 500 mM Tris-HCl, pH 7.5, 1 mM EGTA, and 100 mM magnesium acetate was used for assay of a wide variety of protein kinases. In some experiments, other cofactors were included (e.g., calcium ions and calmodulin were included for assay of calcium-calmodulin-dependent protein kinases).
(§4) The specific activity of the [γ-^32P] ATP solution was 1×10^5 to 1×10^6 c.p.m. per nmol depending on what was needed to produce an optimal signal/noise ratio. Stocks of nonradioactive (“cold”) ATP were dissolved in 10 mM HEPES, and the pH of the resulting stock solutions was adjusted to 7.4. To measure the concentration of ATP, a sample of such a stock solution was diluted to 20 μM, and the absorbance of the diluted sample was measured at 259 nm. The absorbance of a 20 μM stock solution of ATP at 259 nm was about 0.31. The 1-mM solution of cold ATP was “spiked” with [γ-^32P] ATP to produce a radioactivity of 1×10^5 to 1×10^6 c.p.m. per nmol.
(§5) 1) The number of assay samples needed was determined based on, e.g., the following considerations: (i) each condition was assayed in duplicate; (ii) two controls containing peptide or protein substrate and ATP but no protein kinase were included to assess contamination by any free ATP not incorporated into substrate, alongside two controls lacking a peptide or protein substrate but containing ATP and protein kinase to correct for any incorporation of phosphate into the kinase itself (e.g., autophosphorylation); and (iii) a maximum of 40 samples were assayed manually at one time by a single person. Microcentrifuge tubes were label distinctly and were placed on ice.
(§6) 2) Suspend a wire mesh basket in a beaker containing a magnetic stir bar and not less than 5 ml of 75 mM phosphoric acid per assay sample or a minimum volume of 100 ml. Place this on a magnetic stirrer behind a plexiglass shield.
(§7) 3) Label 2 cm×2 cm squares of phosphocellulose paper corresponding to the samples to be pipetted into each microcentrifuge tube. Label the phosphocellulose paper using pencil, which was not affected by the solvents used to wash the papers at the end of the assay.
(§8) 4) Dilute the protein kinase in enzyme dilution buffer and place on ice.
(§9) 5) Pipette 5 μl of 10× concentrated assay buffer, 5 μl peptide or protein substrate (the two “no-substrate” control tubes had 5 μl water added instead of peptide or protein substrate), and 30 μl distilled water into each tube. Keep the tubes on ice.
(§10) 6) Add 5 μl diluted protein kinase to each tube, except for the two “no-enzyme” control tubes, which had 5 μl enzyme dilution buffer added, and still keeping the tubes on ice. In some cases, premixed “cocktails” of assay components were prepared containing peptide or protein substrate, assay buffer, and distilled water to limit the number of additions to each assay tube.
(§11) 7) Insert each tube into the water bath at intervals of 15 s to allow the assay mixture to reach 30° C. Begin the protein kinase reactions by adding 5 μl of 1 mM [γ-^32P]ATP to each tube at intervals of 15 s. Close each tube, vortex for 1 s to mix the contents and immediately replace in a rack in the water bath. Incubate for 10 min at 30° C.
(§12) 8) At 10 min after the addition of ATP, remove each tube from the water bath at intervals of 15 s.
(§13) 9) “Spot” […] of each reaction mixture onto the center of a 2-cm square of P81 phosphocellulose paper using forceps to handle the paper squares. Immediately immerse the paper into the 75 mM phosphoric acid contained in the wire mesh basket suspended in the beaker that is being stirred continuously with a magnetic stirrer. This was be done within 1 to 2 s, as this step terminated the reaction. […]

BTK [1] = biological target: T1, BTK (Homo sapiens (Human), UniProt Q06187); experiment: as above; settings: read-out: Activity of the protein kinase when treated with compound I-1 (% control)
Experimental: as §1, §2, §3, §4, §5, §6, §7, §8, §9, §10, §11, §12, §13

BRK = BRK (Homo sapiens (Human), UniProt Q13882); experiment: as above; settings: read-out: Activity of the protein kinase when treated with compound I-1 (% control)
Experimental: as §1, §2, §3, §4, §5, §6, §7, §8, §9, §10, §11, §12, §13

VEG-FR = experiment: as above
Experimental: as §1, §2, §3, §4, §5, §6, §7, §8, §9, §10, §11, §12, §13

TIE2 = TIE2 (Homo sapiens (Human), UniProt Q02763); experiment: as above; settings: read-out: Activity of the protein kinase when treated with compound I-1 (% control)
Experimental: as §1, §2, §3, §4, §5, §6, §7, §8, §9, §10, §11, §12, §13

ABL = ABL (Homo sapiens (Human), UniProt P00519); experiment: as above; settings: read-out: Activity of the protein kinase when treated with compound I-1 (% control)
Experimental: as §1, §2, §3, §4, §5, §6, §7, §8, §9, §10, §11, §12, §13

p38a MAPK = p38a MAPK (Homo sapiens (Human), UniProt Q16539); experiment: as above; settings: read-out: Activity of the protein kinase when treated with compound I-1 (% control)
Experimental: as §1, §2, §3, §4, §5, §6, §7, §8, §9, §10, §11, §12, §13

DDR2 = DDR2 (Homo sapiens (Human), UniProt Q16832); experiment: as above; settings: read-out: Activity of the protein kinase when treated with compound I-1 (% control)
Experimental: as §1, §2, §3, §4, §5, §6, §7, §8, §9, §10, §11, §12, §13

CSK = CSK (Homo sapiens (Human), UniProt P41240); experiment: as above; settings: read-out: Activity of the protein kinase when treated with compound I-1 (% control)
Experimental: as §1, §2, §3, §4, §5, §6, §7, §8, §9, §10, §11, §12, §13

EPH-B1 = EPH-B1 (Homo sapiens (Human), UniProt P54762); experiment: as above; settings: read-out: Activity of the protein kinase when treated with compound I-1 (% control)
Experimental: as §1, §2, §3, §4, §5, §6, §7, §8, §9, §10, §11, §12, §13

HER4 = HER4 (Homo sapiens (Human), UniProt Q15303); experiment: as above; settings: read-out: Activity of the protein kinase when treated with compound I-1 (% control)
Experimental: as §1, §2, §3, §4, §5, §6, §7, §8, §9, §10, §11, §12, §13

FGF-R1 = FGF-R1 (Homo sapiens (Human), UniProt P11362); experiment: as above; settings: read-out: Activity of the protein kinase when treated with compound I-1 (% control)
Experimental: as §1, §2, §3, §4, §5, §6, §7, §8, §9, §10, §11, §12, §13

Lck = Lck (Homo sapiens (Human), UniProt P06239); experiment: as above; settings: read-out: Activity of the protein kinase when treated with compound I-1 (% control)
Experimental: as §1, §2, §3, §4, §5, §6, §7, §8, §9, §10, §11, §12, §13

Src = Src (Homo sapiens (Human), UniProt P12931); experiment: as above; settings: read-out: Activity of the protein kinase when treated with compound I-1 (% control)
Experimental: as §1, §2, §3, §4, §5, §6, §7, §8, §9, §10, §11, §12, §13

YES1 = YES1 (Homo sapiens (Human), UniProt P07947); experiment: as above; settings: read-out: Activity of the protein kinase when treated with compound I-1 (% control)
Experimental: as §1, §2, §3, §4, §5, §6, §7, §8, §9, §10, §11, §12, §13

BTK [2] = biological target: T1, BTK; experiment: Protein kinase IC50 determination (method developed by Invitrogen Technology); settings: concentration of ATP: Km for ATP
Experimental: (§14) In some experiments, inhibitory activities of the compounds described herein against select protein kinases were determined as IC50 values (e.g., IC50 values in Table 3) using methods known in the art (e.g., the method developed by Invitrogen Technology).

HCK = HCK (Homo sapiens (Human), UniProt P08631); experiment: as above; settings: concentration of ATP: Km for ATP
Experimental: as §14

[3] = 0.1 μM of compound I-1, DMSO control = 100%
[4] = 1 μM of compound I-1, DMSO control = 100%

T1 sequence (Q06187 whole entry): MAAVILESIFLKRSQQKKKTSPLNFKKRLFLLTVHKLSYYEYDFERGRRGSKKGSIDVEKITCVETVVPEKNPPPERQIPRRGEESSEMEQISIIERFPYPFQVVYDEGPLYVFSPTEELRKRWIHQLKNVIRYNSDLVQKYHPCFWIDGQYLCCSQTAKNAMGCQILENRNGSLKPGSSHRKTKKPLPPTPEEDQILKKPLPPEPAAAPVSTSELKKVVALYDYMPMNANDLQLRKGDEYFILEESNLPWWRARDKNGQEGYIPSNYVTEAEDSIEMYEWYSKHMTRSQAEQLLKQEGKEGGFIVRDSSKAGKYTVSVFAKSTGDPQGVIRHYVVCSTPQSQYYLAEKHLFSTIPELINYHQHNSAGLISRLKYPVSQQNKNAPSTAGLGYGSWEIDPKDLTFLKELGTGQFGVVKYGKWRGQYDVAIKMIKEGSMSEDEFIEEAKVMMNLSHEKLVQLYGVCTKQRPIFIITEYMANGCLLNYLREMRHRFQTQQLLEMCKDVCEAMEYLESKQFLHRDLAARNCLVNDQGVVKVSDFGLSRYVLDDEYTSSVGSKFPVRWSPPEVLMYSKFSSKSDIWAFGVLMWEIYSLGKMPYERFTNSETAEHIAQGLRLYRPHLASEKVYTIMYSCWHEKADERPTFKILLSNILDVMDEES
Chain of HCK (P08631 whole entry): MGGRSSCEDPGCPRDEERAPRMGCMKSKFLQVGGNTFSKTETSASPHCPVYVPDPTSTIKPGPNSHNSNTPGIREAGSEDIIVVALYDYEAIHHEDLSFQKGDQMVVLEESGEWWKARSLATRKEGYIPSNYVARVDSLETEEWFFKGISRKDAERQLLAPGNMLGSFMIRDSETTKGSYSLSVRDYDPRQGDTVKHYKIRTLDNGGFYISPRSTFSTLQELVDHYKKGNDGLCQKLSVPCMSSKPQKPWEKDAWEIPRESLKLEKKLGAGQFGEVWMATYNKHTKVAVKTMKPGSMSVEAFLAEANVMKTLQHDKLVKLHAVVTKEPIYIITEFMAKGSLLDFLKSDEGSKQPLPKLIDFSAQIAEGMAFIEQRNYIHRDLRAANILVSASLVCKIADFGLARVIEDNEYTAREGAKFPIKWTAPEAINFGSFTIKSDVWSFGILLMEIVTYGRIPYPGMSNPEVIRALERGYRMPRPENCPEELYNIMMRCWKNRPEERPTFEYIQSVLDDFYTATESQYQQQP
Chain of Src (P12931 whole entry): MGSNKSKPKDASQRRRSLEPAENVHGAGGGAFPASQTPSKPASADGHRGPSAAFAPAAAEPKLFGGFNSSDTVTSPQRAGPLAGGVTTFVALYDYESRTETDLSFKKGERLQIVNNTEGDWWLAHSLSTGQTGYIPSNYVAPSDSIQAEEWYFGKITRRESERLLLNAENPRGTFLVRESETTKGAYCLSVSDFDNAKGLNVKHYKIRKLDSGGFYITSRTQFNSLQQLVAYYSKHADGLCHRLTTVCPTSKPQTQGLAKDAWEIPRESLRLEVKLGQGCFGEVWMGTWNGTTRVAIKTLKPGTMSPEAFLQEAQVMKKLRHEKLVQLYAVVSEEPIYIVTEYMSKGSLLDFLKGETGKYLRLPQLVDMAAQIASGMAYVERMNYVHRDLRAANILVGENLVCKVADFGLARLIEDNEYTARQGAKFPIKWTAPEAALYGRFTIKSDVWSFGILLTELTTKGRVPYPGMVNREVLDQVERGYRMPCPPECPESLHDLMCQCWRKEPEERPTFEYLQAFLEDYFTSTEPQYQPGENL
Chain of CSK (P41240 whole entry): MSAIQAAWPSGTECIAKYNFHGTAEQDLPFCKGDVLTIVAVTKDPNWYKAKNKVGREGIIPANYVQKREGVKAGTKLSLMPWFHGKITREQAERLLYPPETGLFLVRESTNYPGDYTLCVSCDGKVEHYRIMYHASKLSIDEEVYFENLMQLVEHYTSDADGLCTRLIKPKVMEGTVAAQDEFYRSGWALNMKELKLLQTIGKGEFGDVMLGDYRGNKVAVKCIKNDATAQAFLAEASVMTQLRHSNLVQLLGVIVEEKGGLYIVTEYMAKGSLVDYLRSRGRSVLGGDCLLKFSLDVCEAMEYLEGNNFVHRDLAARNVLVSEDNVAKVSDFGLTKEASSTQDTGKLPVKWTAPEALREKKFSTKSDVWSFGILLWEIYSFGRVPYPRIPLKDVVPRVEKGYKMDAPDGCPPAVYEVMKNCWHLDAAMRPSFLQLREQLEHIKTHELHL
Chain of DDR2 (Q16832 22-855): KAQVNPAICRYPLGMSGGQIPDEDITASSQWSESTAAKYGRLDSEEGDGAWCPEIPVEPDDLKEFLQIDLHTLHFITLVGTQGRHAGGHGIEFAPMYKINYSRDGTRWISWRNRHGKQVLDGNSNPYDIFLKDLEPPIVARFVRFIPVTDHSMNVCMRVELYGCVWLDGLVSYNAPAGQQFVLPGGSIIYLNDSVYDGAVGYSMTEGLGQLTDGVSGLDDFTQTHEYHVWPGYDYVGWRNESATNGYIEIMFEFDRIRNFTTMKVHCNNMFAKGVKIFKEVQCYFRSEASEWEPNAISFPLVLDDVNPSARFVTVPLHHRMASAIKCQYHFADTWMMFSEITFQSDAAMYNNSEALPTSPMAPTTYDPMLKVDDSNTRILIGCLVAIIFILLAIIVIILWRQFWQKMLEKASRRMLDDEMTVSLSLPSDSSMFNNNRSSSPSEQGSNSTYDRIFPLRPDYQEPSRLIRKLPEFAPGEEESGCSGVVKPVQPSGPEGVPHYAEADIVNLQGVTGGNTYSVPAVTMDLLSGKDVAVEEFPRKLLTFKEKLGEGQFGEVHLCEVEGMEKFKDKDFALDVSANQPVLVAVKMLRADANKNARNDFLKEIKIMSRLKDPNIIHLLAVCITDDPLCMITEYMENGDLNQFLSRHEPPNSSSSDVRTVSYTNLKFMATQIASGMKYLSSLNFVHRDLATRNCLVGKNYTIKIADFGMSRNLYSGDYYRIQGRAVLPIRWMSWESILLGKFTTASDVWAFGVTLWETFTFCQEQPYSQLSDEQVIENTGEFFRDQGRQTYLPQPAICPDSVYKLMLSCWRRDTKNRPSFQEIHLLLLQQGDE
Chain of FGF-R1 (P11362 22-822): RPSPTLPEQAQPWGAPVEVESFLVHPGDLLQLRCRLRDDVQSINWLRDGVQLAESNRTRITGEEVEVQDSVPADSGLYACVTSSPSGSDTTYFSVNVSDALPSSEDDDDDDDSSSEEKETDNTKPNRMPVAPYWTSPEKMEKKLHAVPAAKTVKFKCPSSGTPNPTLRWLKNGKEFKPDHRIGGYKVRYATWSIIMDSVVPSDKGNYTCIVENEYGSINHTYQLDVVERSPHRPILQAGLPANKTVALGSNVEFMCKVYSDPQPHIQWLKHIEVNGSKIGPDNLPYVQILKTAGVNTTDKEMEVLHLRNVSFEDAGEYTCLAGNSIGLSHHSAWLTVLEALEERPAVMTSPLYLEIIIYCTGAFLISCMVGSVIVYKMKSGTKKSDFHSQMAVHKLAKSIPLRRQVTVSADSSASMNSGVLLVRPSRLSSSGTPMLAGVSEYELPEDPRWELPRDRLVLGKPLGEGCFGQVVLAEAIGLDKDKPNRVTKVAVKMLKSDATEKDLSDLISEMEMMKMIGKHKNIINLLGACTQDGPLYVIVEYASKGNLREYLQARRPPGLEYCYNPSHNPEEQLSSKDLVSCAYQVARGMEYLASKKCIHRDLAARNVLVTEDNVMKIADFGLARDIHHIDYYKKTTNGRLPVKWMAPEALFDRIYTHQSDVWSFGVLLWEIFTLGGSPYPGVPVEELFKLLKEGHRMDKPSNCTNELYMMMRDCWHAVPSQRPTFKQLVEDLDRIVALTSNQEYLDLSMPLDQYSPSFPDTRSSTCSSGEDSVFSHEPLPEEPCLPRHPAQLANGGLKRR
Chain of p38a MAPK (Q16539 whole entry, looked up): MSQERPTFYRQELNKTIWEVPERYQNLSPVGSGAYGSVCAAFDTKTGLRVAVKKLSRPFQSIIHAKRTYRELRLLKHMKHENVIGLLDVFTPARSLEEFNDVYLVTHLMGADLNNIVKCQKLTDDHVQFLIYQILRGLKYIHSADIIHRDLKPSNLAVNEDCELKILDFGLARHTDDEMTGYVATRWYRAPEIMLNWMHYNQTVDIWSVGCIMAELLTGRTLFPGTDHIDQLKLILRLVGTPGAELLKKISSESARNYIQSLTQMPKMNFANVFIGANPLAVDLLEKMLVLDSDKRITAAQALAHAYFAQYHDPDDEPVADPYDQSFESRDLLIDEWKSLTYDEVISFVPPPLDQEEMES
Chain of Lck (P06239 whole entry): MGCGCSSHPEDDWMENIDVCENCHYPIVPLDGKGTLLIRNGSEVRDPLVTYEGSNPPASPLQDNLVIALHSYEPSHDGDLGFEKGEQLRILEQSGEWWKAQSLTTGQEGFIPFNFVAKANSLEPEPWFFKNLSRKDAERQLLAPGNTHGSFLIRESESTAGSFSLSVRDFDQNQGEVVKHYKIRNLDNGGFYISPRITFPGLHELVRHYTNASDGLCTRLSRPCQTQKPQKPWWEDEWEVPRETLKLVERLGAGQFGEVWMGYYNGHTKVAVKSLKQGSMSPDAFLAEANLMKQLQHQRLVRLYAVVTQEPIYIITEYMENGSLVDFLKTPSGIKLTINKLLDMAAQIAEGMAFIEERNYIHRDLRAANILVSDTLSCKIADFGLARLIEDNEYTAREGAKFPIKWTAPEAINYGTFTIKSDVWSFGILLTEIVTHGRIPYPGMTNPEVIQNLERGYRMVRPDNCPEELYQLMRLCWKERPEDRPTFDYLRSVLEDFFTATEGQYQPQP

With `CCN1CCN(c2ccc(Nc3cc(-n4ccnc4Nc4c(C)cccc4C)ncn3)cc2)CC1` [Compound I-1, 6-(2-((2,6-Dimethylphenyl)amino)-1H-imidazol-1-yl)-N-(4-(4-ethylpiperazin-1-yl)phenyl)pyrimidin-4-amine] the remaining activity at 0.1 µM (EPH-A2; [3]) was 99%, the remaining activity at 1 µM (EPH-A2; [4]) was 59% and the remaining activity at 0.1 µM (BTK [1]; [3]) was 85%. The remaining activity at 1 µM (BTK [1]; [4]) was 30%, the remaining activity at 0.1 µM (BRK; [3]) was 74% and the remaining activity at 1 µM (BRK; [4]) was 16%. The “Activity of the protein kinase when treated with compound I-1 (% control)” value (VEG-FR; [3]) was 81 % control, the “Activity of the protein kinase when treated with compound I-1 (% control)” value (VEG-FR; [4]) was 31 % control and the remaining activity at 0.1 µM (TIE2; [3]) was 82%. For the same compound, the remaining activity at 1 µM (TIE2; [4]) was 85%, the remaining activity at 0.1 µM (ABL; [3]) was 84% and the remaining activity at 1 µM (ABL; [4]) was 48%. The remaining activity at 0.1 µM (p38a MAPK; [3]) was 87%, the remaining activity at 1 µM (p38a MAPK; [4]) was 28% and the remaining activity at 0.1 µM (DDR2; [3]) was 46%. For the same compound, the remaining activity at 1 µM (DDR2; [4]) was 12%, the remaining activity at 0.1 µM (CSK; [3]) was 94% and the remaining activity at 1 µM (CSK; [4]) was 67%. It also gave a remaining activity at 0.1 µM (EPH-B1; [3]) of 86%, a remaining activity at 1 µM (EPH-B1; [4]) of 16% and a remaining activity at 0.1 µM (HER4; [3]) of 97%. The remaining activity at 1 µM (HER4; [4]) was 76%, the remaining activity at 0.1 µM (FGF-R1; [3]) was 67% and the remaining activity at 1 µM (FGF-R1; [4]) was 30%. It also gave a remaining activity at 0.1 µM (Lck; [3]) of 24%, a remaining activity at 1 µM (Lck; [4]) of 13% and a remaining activity at 0.1 µM (Src; [3]) of 43%. The remaining activity at 1 µM (Src; [4]) was 13%, the remaining activity at 0.1 µM (YES1; [3]) was 41% and the remaining activity at 1 µM (YES1; [4]) was 8%. The IC50 (BTK [2]) was 338 nM and the IC50 (HCK) was 111 nM.

`COCCOc1ccc(Nc2cc(-n3ccnc3Nc3c(C)cccc3Cl)ncn2)cc1` [Compound I-2] was tested, and the IC50 (BTK [2]) was 1860 nM and the IC50 (HCK) was 307 nM.

In the case of `COCCOc1ccc(Nc2cc(-n3ccnc3Nc3c(C)cccc3C)ncn2)cc1` [Compound I-3], the IC50 (BTK [2]) is reported as 9980 nM and the IC50 (HCK) is reported as 2420 nM.

Compound `Cc1cccc(Cl)c1Nc1nccn1-c1cc(Nc2cnn(C)c2)ncn1` [Compound I-4] has an IC50 (BTK [2]) greater than 10000 nM and an IC50 (HCK) of 3000 nM.
